Columns and labels:
human EHMT2 913-1193 = target: T1, human EHMT2 913-1193 (Homo sapiens, UniProt Q96KQ7); assay: EHMT2 enzyme assay on histone peptide substrate (3H-SAM SPA); details: EHMT2 IC50, recombinant human EHMT2 913-1193, histone peptide substrate
T1 sequence (Q96KQ7 913-1193): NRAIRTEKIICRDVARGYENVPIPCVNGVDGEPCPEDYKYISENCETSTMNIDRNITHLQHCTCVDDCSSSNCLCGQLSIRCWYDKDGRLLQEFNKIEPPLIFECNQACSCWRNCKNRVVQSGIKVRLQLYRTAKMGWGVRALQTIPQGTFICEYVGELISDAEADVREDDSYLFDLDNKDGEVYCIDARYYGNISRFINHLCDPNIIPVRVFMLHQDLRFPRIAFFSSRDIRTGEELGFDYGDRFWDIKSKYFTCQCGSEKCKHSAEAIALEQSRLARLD

human EHMT1 982-1266 = target: T2, human EHMT1 982-1266 (Homo sapiens, UniProt Q9H9B1); assay: EHMT1 enzyme assay on histone peptide substrate (3H-SAM SPA); details: EHMT1 IC50, recombinant human EHMT1 982-1266, histone peptide substrate
T2 sequence (Q9H9B1 982-1266): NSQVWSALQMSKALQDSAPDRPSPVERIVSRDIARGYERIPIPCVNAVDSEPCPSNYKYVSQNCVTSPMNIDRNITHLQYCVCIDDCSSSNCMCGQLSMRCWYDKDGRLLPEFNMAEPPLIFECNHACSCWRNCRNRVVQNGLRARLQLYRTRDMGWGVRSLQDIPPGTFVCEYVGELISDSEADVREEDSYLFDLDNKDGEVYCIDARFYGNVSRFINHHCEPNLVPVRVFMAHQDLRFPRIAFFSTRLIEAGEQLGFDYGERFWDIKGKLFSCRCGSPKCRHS

H3K9me2 in HCT116 cells = assay: HCT116 H3K9me2 in-cell western assay; assay type: cell-based; details: Homo sapiens, HCT-116, 72 h, HCT116 cells, 72 hours incubation; read-out: H3K9me2 ICW IC50
Excerpt: HCT116 cell line was purchased from ATCC (Manassas, VA, USA). […] Penicillin-Streptomycin and heat inactivated fetal bovine serum were purchased from Hyclone (Logan, UT, USA). DPBS, Corning^R were purchased from VWR (Radnor, PA, USA). Triton′ X-100 was purchased from Sigma (St. Louis, MO, USA). Intercept blocking buffer, DRAQ5, Licor Odyssey Infrared Scanner were purchased from Licor Biosciences (Lincoln, NB, USA). Plate washer was purchased from BioTek (Winooski, VT, USA). […] 16% Paraformaldehyde was purchased from Electron Microscopy Sciences (Hatfield, PA, USA). HCT116 cells were maintained in complete growth medium (RPMI supplemented with 10% heat inactivated fetal bovine serum, 1% Penicillin-Streptomycin) and cultured at 37° C. under 5% CO2. N^2-(4-methoxy-3-(3-(pyrrolidin-1-yl)propoxy)phenyl)-N^4,6-dimethyl]pyrimidine-2,4-diamine (synthesis disclosed in International Application WO2017181177A1) was used as a control compound.
HCT116 cells (ATCC) were trypsinized, counted and seeded in assay medium (RPMI supplemented with 10% heat inactivated fetal bovine serum, 1% Penicillin-Streptomycin) at a concentration of 2,000 cells per well to a 384-well cell culture plate with compounds in 50 μl per well. Plates were incubated with at 37° C. under 5% CO2 for 72 hours. After the incubation, 50 μl per well of 8% paraformaldehyde in PBS was added to the plates and incubated at room temperature for 20 minutes. Plates were transferred to a BioTek (EL406) plate washer and washed 5 times with 110 μl per well of wash buffer (1×PBS containing 0.1% Triton X-100). The plates were next blocked with 50 μl of Intercept blocking buffer for 1 hour at room temperature. Blocking buffer was removed and 30 μl per well of monoclonal primary antibody of H3K9me2 (CST) diluted 1:200 in Intercept blocking buffer were added and plates were incubated overnight at 4° C. The plates were then washed 5 times with 110 μl per well of wash buffer (1×PBS containing 0.1% Triton X-100). Next 30 μl per well of secondary was added (1:400 800 CW goat anti-rabbit IgG in blocking buffer) with 1:1000 DRAQ5 in blocking buffer and incubated for 2 hours at room temperature. The plates were washed 5 times with 110 μl per well of wash buffer (1×PBS containing 0.1% Triton X-100) then with 100 μl per well of water once. Plates were allowed to dry at room temperature then imaged on a Licor Odyssey Infrared Scanner which measured integrated intensity at 700 nm and 800 nm wavelength. Both 700 and 800 channels were scanned.
The average of the ratio values (800 nm/700 nm) for each well was calculated and used to determine the percentage for each test well in the plate. Compounds were serially diluted two-fold in 0.1% DMSO for a total of 10 test concentrations beginning at 10 μM. IC50 curves were generated using duplicate wells per concentration of compound. […] IC50 values were calculated using a non-linear regression of Prism.

| SMILES | IC50 (human EHMT2 913-1193) | IC50 (human EHMT1 982-1266) | IC50 (H3K9me2 in HCT116 cells) |
| --- | --- | --- | --- |
| CNc1cc(C)nc(Nc2cc3c(c(C4=C[C@H]5CNC[C@H]5C4)c2)OCC3)n1 (racemic) [Compound 133, N2-[7-(1,2,3,3a,6,6a-hexahydrocyclopenta [c]pyrrol-5-yl)-2,3-dihydrobenzofuran-5-yl]-N4,6-dimethyl-pyrimidine-2,4-diamine] | 500 to 2000 nM | 100 to 500 nM | 500 to 2000 nM |
| CNc1cc(C)nc(Nc2cc3c(c(C4=C[C@H]5CNC[C@H]5C4)c2)OC(F)(F)O3)n1 (racemic) [Compound 143, N2-[7-(1,2,3,3a,6,6a-hexahydrocyclopenta[c]pyrrol-5-yl)-2,2-difluoro-1,3-benzodioxol-5-yl]-N4,6-dimethyl-pyrimidine-2,4-diamine] | > 2000 nM | 100 to 500 nM | > 2000 nM |
| CNc1cc(C)nc(Nc2cc3c(c(C4=C[C@@H]5CNC[C@@H]5C4)c2F)OCC3)n1 (racemic) [Compound 359, N2-[7-(1,2,3,3a,6,6a-hexahydrocyclopenta[c]pyrrol-5-yl)-6-fluoro-2,3-dihydrobenzofuran-5-yl]-N4,6-dimethyl-pyrimidine-2,4-diamine] | 100 to 500 nM | < 100 nM | 100 to 500 nM |
| CNc1cc(C)nc(Nc2cc3c(c(C4=CCNCC(O)C4)c2C)OCCC3)n1 (single isomer, unassigned) [Compound 355] | < 100 nM | < 100 nM | < 100 nM |
| CNc1cc(C)nc(Nc2cc3c(c(C4=CCNCC(O)C4)c2C)OCC3)n1 (single isomer, unassigned) [Compound 358] | 100 to 500 nM | 100 to 500 nM | 100 to 500 nM |
| CNc1cc(C)nc(Nc2cc3c(c(C4=CCNCC(O)C4)c2Cl)OCC3)n1 (single isomer, unassigned) [Compound 376] | 100 to 500 nM | < 100 nM | < 100 nM |
| CNc1cc(C)nc(Nc2cc3c(c(C4=CCNCC(O)C4)c2Cl)OCCC3)n1 (single isomer, unassigned) [Compound 407] |  |  | < 100 nM |
| CNc1cc(C)nc(Nc2cc3c(c(C4=CCNCCC4)c2F)OCCC3C)n1 (single isomer, unassigned) [Compound 414] |  |  | < 100 nM |
| CNc1cc(C)nc(Nc2cc3c(c(C4=CCNCC(O)C4)c2F)OCO3)n1 (single isomer, unassigned) [Compound 428] | < 100 nM | < 100 nM | < 100 nM |
| CNc1cc(C)nc(Nc2cc3c(c(C4=CCNC[C@H](O)C4)c2F)OC[C@@H]3C)n1 (stereo in doubt) [Compound 401, rel-(3R)-5-[rel-(3R)-6-fluoro-3-methyl-5-[[4-methyl-6-(methylamino)pyrimidin-2-yl]amino]-2,3-dihydrobenzofuran-7-yl]-2,3,4,7-tetrahydro-1H-azepin-3-ol] | 100 to 500 nM | < 100 nM | < 100 nM |
| CNc1cc(C)nc(Nc2cc3c(c(C4=CCNC(C)CC4)c2F)OCC3)n1 (stereo not shown) [Compound 202] |  |  | < 100 nM |

Further lines, results first:

| IC50 (human EHMT2 913-1193) | IC50 (human EHMT1 982-1266) | IC50 (H3K9me2 in HCT116 cells) | SMILES |
| --- | --- | --- | --- |
| < 100 nM | < 100 nM | < 100 nM | CNc1cc(C)nc(Nc2cc3c(c(C4=CCN(C)CC(O)C4)c2F)OCC3)n1 (single isomer, unassigned) [Compound 352] |
| 500 to 2000 nM | 100 to 500 nM | 100 to 500 nM | CNc1cc(C)nc(Nc2cc3c(c(C4=CCN(C)CC(O)C4)c2C)OCC3)n1 (single isomer, unassigned) [Compound 375] |
| < 100 nM | < 100 nM | < 100 nM | CNc1cc(C)nc(Nc2cc3c(c(C4=CCNC(C)CC4)c2C)OCC3)n1 (single isomer, unassigned) [Compound 383] |
|  |  | < 100 nM | CNc1cc(C)nc(Nc2cc3c(c(C4=CCN(C)CC(O)C4)c2Cl)OCCC3)n1 (single isomer, unassigned) [Compound 402] |
|  |  | 100 to 500 nM | CNc1cc(C)nc(Nc2cc3c(c(C4=CCN(C)CCC4)c2F)OCCC3C)n1 (single isomer, unassigned) [Compound 406] |
|  |  | < 100 nM | CNc1cc(C)nc(Nc2cc3c(c(C4=CCNCCC4)c2F)OCC[C@@H]3C)n1 (single isomer, unassigned) [Compound 415] |
| 100 to 500 nM | < 100 nM | < 100 nM | CNc1cc(C)nc(Nc2cc3c(c(C4=CCC(N)CC4)c2F)OCC3)n1 (single isomer, unassigned) [Compound 435] |
| 100 to 500 nM | < 100 nM | < 100 nM | CNc1cc(C)nc(Nc2cc3c(c(C4=CCNC[C@H](O)C4)c2F)OC[C@H]3C)n1 (stereo in doubt) [Compound 398, rel-(3R)-5-[rel-(3S)-6-fluoro-3-methyl-5-[[4-methyl-6-(methylamino)pyrimidin-2-yl]amino]-2,3-dihydrobenzofuran-7-yl]-2,3,4,7-tetrahydro-1H-azepin-3-ol] |
| < 100 nM | < 100 nM | < 100 nM | CNc1cc(C)nc(Nc2cc3c(c(C4=CCNC[C@@H](O)C4)c2F)OC[C@H]3C)n1 (stereo in doubt) [Compound 420, rel-(3S)-5-[rel-(3S)-6-fluoro-3-methyl-5-[[4-methyl-6-(methylamino)pyrimidin-2-yl]amino]-2,3-dihydrobenzofuran-7-yl]-2,3,4,7-tetrahydro-1H-azepin-3-ol] |
| < 100 nM | < 100 nM | < 100 nM | CNc1cc(C)nc(Nc2cc3c(c(C4=CCNC[C@@H](O)C4)c2F)OC[C@@H]3C)n1 (stereo in doubt) [Compound 422, rel-(3S)-5-[rel-(3R)-6-fluoro-3-methyl-5-[[4-methyl-6-(methylamino)pyrimidin-2-yl]amino]-2,3-dihydrobenzofuran-7-yl]-2,3,4,7-tetrahydro-1H-azepin-3-ol] |
| 500 to 2000 nM | 100 to 500 nM | 500 to 2000 nM | CNc1cc(C)nc(Nc2cc(OCCCN3CCCC3)c3occc3c2)n1 [Compound 102, N4,6-dimethyl-N2-[7-(3-pyrrolidin-1-ylpropoxy)benzofuran-5-yl]pyrimidine-2,4-diamine] |
| > 2000 nM | > 2000 nM | > 2000 nM | CNc1cc(C2CCCCC2)nc(Nc2cc3c(c(OCCCN4CCCC4)c2)OCC3)n1 [Compound 104, 6-cyclohexyl-N4-methyl-N2-[7-(3-pyrrolidin-1-ylpropoxy)-2,3-dihydrobenzofuran-5-yl]pyrimidine-2,4-diamine] |
|  |  | 100 to 500 nM | Cc1cc(N(C)C)nc(Nc2cc3c(c(C4=CCNCCC4)c2)OCC3)n1 [Compound 138] |
|  |  | 500 to 2000 nM | Cc1cc(N(C)C)nc(Nc2cc3c(c(C4=CCN(C)CCC4)c2)OCC3)n1 [Compound 139] |
|  |  | < 100 nM | [2H]Cc1cc(NC([2H])([2H])[2H])nc(Nc2cc3c(c(C4=CCNCCC4)c2F)OCC3)n1 [Compound 249] |
|  |  | < 100 nM | [2H]C([2H])([2H])Nc1cc(C)nc(Nc2cc3c(c(C4=CCNCCC4)c2F)OCC3)n1 [Compound 253] |

— patent publication US20240368139A1, “NOVEL MODULATORS OF EHMT1 AND EHMT2 AND THERAPEUTIC USE THEREOF” (Tango Therapeutics, Inc., priority 2021, published 2024)
